Assay results: ChEMBL document CHEMBL1201862, “PubChem BioAssay data set” (2004)
Activity calls are given as the source filed them.

Experiments:
[1] = T. cruzi growth inhibition in host cells, dose response, cell-based, plate reader, dry powder, set 2 (AID 652275); type: functional
[2] = P. falciparum Dd2 growth inhibitors, dose response, SYBR Green, cherry-picked samples (AID 1159567); type: functional, cell-based
[3] = HepG2 cell cytotoxicity, dose response, cytotoxicity control, cherry-picked samples (AID 1159577); type: functional, cell-based
[4] = P. falciparum late gametocyte killing, dose response, luminescence (AID 1117278); type: functional, cell-based;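 note: gametocytes exposed to compound for 24 hours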
[5] = Jurkat T cell cytotoxicity, dose response, cytotoxicity control for P. falciparum gametocyte viability project, luminescence (AID 1117277); type: functional, cell-based;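 note: potency reflects loss of cellular ATP meaning fewer viable cells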
Galanin receptor type 3 = molecular target: T1, Galanin receptor type 3 (Homo sapiens, UniProt O60755); test: Fluorescence-based cell-based primary high throughput dose response assay to identify antagonists of the Galanin Receptor 3 (GalR3).; type: functional
T1 sequence (O60755 whole entry): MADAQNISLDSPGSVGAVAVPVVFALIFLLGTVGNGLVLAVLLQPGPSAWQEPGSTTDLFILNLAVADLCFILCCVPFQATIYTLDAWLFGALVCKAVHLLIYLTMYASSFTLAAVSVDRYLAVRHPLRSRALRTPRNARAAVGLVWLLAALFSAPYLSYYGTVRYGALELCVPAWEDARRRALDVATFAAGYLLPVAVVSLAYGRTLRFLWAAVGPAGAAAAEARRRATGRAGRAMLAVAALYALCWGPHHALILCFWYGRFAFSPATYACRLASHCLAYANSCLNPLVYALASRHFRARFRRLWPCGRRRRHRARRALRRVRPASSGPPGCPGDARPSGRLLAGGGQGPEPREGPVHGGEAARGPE

cells = type: functional, cell-based; conditions: HEK-CNG
[6] = A549 cell cytotoxicity, dose response, cytotoxicity control, plate reader, cherry-pick, antagonist series (AID 743412); type: functional, cell-based
[7] = HepG2 cell cytotoxicity, dose response, cytotoxicity control, plate reader, cherry-pick, antagonist series (AID 743416); type: functional, cell-based
[8] = LGR2 antagonists, dose response, cell-based, HEK293, CRE-luciferase reporter, cherry pick, set 2 (AID 743343); type: functional;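 note: transfected cells were stimulated with diluted bursicon conditioned medium after compound addition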
[9] = MC4R antagonists, dose response, counter-screen for LGR2 antagonist project, cell-based, plate reader, cherry pick (AID 743444); type: functional;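 note: transfected HEK 293 cells stimulated with alpha-MSH peptide; potency of inhibitors of the alpha-MSH evoked signal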
Coagulation factor XII = molecular target: T2, Coagulation factor XII (Homo sapiens, UniProt P00748); type: functional;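 note: activated factor XIIa alpha cleaving a fluorogenic AMC peptide substrate; inhibitor potency from loss of enzyme activity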
T2 sequence (P00748 whole entry): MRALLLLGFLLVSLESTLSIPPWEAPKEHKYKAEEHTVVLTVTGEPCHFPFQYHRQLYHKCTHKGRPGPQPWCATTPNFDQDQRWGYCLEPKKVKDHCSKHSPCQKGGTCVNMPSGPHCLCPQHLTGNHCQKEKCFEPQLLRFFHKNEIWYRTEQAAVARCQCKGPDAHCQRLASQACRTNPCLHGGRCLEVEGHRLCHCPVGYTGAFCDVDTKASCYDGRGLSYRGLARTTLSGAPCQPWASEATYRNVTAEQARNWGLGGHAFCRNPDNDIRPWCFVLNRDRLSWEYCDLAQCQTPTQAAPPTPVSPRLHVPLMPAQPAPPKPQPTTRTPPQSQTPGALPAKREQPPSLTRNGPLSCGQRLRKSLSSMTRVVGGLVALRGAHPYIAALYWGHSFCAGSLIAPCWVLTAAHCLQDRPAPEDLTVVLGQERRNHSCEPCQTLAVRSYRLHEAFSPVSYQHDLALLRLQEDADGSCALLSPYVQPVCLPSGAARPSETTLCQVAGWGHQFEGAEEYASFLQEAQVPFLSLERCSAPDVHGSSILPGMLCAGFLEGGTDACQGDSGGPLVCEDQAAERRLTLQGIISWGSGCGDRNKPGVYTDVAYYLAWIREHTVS

[10] = THP-1 cell cytotoxicity, dose response, cytotoxicity control for Vif-APOBEC3G degradation inhibitor project, THP-1 cells (AID 1117359); type: functional; conditions: Human immunodeficiency virus 1, THP-1
[11] = HepG2 cell cytotoxicity, dose response, cytotoxicity control, ATP luminescence, cherry-pick, activator set 2 (AID 1053143); type: functional, cell-based
[12] = P. falciparum 3D7-ScDHODH growth inhibitors, dose response, SYBR Green, dry powder samples (AID 1159570); type: functional, cell-based;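 note: parasite growth measured after 72 hours of compound exposure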
[13] = HepG2 cell cytotoxicity, dose response, cytotoxicity control, plate reader, dry powder samples (AID 1159569); type: functional, cell-based;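 note: inhibitor potency with signal falling toward the positive control level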
[14] = P. falciparum Dd2 growth inhibitors, dose response, SYBR Green, dry powder samples (AID 1159566); type: functional, cell-based;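 note: potency for growth inhibition with lower SYBR green DNA signal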
[15] = P. falciparum ATP4 D1247Y mutant growth inhibitors, dose response, NITD609-resistant line, SYBR Green, dry powder (AID 1159571); type: functional, cell-based;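 note: parasites synchronized at ring stage by sorbitol before testing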
Estrogen receptor = molecular target: T3, Estrogen receptor (Homo sapiens, UniProt P03372);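 note: potency for inhibiting coactivator peptide recruitment to the receptor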
T3 sequence (P03372 whole entry): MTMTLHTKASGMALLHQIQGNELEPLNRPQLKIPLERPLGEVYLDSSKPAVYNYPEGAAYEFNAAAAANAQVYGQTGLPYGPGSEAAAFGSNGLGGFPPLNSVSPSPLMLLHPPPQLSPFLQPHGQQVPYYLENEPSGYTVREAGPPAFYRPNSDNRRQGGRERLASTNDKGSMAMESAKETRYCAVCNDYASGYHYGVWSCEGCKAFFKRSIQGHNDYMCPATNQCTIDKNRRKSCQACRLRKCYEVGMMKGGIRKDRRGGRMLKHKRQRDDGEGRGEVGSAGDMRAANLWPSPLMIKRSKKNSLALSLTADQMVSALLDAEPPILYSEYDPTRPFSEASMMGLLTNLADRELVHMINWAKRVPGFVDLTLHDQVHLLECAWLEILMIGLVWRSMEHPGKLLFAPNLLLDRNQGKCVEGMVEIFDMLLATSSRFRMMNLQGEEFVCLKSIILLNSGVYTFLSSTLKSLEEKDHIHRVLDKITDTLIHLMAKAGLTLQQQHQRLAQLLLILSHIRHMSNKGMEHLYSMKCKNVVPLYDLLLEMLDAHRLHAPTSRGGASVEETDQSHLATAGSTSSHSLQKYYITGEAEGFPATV
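Throughout, for EC50: target is galanin receptor GalR3 read with a cAMP biosensor in HEK293 cells.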

## C[C@@H]1CCCCO[C@H](CN(C)Cc2ccc(Cl)c(Cl)c2)[C@@H](C)CN([C@H](C)CO)C(=O)c2cc(N(C)C)ccc2O1
[1]
  AC50: 2.73 µM (active)

## C[C@@H]1CN([C@@H](C)CO)S(=O)(=O)c2ccc(C#Cc3ccccc3)cc2O[C@H]1CN(C)C(=O)C1CC1
[2]
  AC50: 4.38 µM (active)
[3]
  AC50: > 39 µM (inactive)

## O=C1CC(=O)Nc2cc(S(=O)(=O)N3CCN(c4cccc(C(F)(F)F)c4)CC3)ccc2N1
[4]
  IC50: > 109 µM (inactive)
[5]
  IC50: > 83.3 µM (inactive)

## O=C1NC(=O)N(CCc2ccc(F)cc2)C(=O)/C1=C/NNC(=O)c1ccncc1
Galanin receptor type 3
  IC50: > 29.9 µM (inactive)
cells
  EC50: > 29.9 µM (inactive)

## N#Cc1cccc(-c2ccc([C@@H]3[C@H](CO)N4CCCCN(C(=O)Nc5cccc(F)c5)C[C@@H]34)cc2)c1
[6]
  AC50: 16.7 µM (active)
[7]
  AC50: > 24 µM (inactive)
[8]
  AC50: 40.6 µM (active)
[9]
  AC50: 47.2 µM (active)
[2]
  AC50: 2.18 µM (active)
[3]
  AC50: 7.5 µM (active)

## COc1ccc(OC)c(NC(=O)CC2C(=O)NCCN2C(=O)Nc2cccc(Cl)c2)c1 (stereo not drawn)
Coagulation factor XII
  IC50: > 50 µM (inactive)
[10]
  CC50: > 40 µM (active)

## COc1ccc(-c2cc(C(=O)N3CCOCC3)no2)cc1
[8]
  AC50: 10.4 µM (active)
[9]
  AC50: 8.26 µM (active)

## Cc1ccc(NC(=O)Nc2ccc(F)c(Cl)c2)cc1
[11]
  AC50: 33.1 µM (active)

## COc1ccc(C#Cc2ccc3c(c2)[C@H]2[C@H](CCN2Cc2nccs2)[C@@H](CO)N3)cc1
[12]
  AC50: 3.44 µM (active)
[13]
  AC50: 74.7 µM (active)
[2]
  AC50: 1.9 µM (active)
[14]
  AC50: 2.06 µM (active)
[15]
  AC50: 2.52 µM (active)

## COc1ccccc1NC(=O)c1ccccc1NC(=O)c1cc(Cl)ccc1NC(=O)c1ccco1
Estrogen receptor
  IC50: 12.5 µM (active)
[4]
  IC50: > 109 µM (inactive)
[5]
  IC50: > 83.3 µM (inactive)

## OC[C@@H]1[C@H](c2ccc(C#Cc3ccccc3F)cc2)[C@H]2CN(Cc3cncnc3)CCCCN12
[2]
  AC50: 3.54 µM (active)
[3]
  AC50: 10.8 µM (active)
